Results reported in patent publication US8975232B2, “Macrocyclic kinase inhibitors and uses thereof” (President and Fellows of Harvard College, priority 2010, dated 2015).
pIC50: −log10 of the molar value.

Assays:
Akt3 = Akt3 (Homo sapiens, UniProt Q9Y243); assay: Z'-LYTE kinase assay (Invitrogen SelectScreen); type: biochemical; conditions: AKT3 (PKB gamma); 5 μM
Text: (§1) Macrocycles A10-B1-C11-D5 and A10-B8-C11-D5 were enriched 2- to 6-fold upon selection for binding Akt3, MAPKAPK2, Pim1, and VEGFR2 (FIG. 6). These two macrocycles are structurally similar, sharing nitrophenylalanine (A10) and cyclohexylstatine (C11) building blocks as well as the same lysine scaffold (D5), and differ only at the B building block with either furylalanine (B1) or cyclohexylalanine (B8) (FIG. 6). For assay purposes, the macrocycles were synthesized with C-terminal PEG-diamine linkers to aid solubility, and then tested for the ability to inhibit Akt3, MAPKAPK2, Pim1 and VEGFR2.
(§2) Src IC50 determinations and single-point inhibition measurements were performed using Invitrogen's Z′-LYTE Tyr 02 assay kit according to the manufacturer's protocols. All kinase assays were performed at ATP concentrations near KM,ATP values, except where noted otherwise. Active human Src kinase was obtained from Millipore. For kinome profiling and IC50 determinations against non-Src kinases, compounds were submitted to Invitrogen's SelectScreen Kinase Profiling Service.

VEGFR2 (KDR) = VEGFR2 (KDR) (Homo sapiens, UniProt P35968); assay: Z'-LYTE kinase assay (Invitrogen SelectScreen); type: biochemical; conditions: KDR (VEGFR2); 5 μM
VEGFR2 (KDR), sequence (P35968 20-1356): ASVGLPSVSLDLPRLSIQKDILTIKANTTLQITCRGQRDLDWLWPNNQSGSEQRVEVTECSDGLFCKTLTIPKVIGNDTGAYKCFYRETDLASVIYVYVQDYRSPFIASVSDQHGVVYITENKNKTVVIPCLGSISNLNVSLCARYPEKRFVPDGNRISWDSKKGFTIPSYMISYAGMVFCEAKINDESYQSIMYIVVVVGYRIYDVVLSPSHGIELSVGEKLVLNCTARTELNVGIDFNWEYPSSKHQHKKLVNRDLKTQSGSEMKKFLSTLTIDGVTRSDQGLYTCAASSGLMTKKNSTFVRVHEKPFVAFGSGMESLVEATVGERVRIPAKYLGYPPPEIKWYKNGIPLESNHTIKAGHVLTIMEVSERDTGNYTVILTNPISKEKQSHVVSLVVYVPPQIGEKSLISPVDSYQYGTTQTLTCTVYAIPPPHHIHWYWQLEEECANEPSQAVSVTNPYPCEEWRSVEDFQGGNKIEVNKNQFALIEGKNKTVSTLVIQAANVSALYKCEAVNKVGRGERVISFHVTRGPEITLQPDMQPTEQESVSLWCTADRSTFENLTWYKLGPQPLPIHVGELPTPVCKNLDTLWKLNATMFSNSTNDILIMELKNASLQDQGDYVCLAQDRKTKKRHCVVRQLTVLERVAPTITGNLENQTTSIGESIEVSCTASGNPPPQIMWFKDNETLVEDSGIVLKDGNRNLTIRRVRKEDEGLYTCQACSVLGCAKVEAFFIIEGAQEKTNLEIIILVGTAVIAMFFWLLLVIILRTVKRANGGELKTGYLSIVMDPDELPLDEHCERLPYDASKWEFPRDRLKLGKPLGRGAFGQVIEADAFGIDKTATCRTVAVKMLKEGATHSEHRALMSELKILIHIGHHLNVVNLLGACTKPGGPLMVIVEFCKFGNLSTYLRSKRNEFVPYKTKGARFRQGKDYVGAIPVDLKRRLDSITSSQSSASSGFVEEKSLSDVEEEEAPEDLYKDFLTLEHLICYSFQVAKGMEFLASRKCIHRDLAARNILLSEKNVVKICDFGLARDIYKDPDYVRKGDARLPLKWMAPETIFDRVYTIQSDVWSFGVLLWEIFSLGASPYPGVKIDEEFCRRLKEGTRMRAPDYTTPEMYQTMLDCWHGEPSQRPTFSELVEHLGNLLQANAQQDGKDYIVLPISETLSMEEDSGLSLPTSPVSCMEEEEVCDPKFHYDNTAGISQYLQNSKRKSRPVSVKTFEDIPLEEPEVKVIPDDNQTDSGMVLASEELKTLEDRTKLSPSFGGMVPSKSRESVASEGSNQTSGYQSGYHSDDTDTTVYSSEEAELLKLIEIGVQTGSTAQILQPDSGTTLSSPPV
Text: as §1, §2

Pim1 = Pim1 (Homo sapiens, UniProt P11309); assay: Z'-LYTE kinase assay (Invitrogen SelectScreen); type: biochemical; conditions: PIM1; 5 μM
Pim1, sequence (P11309 whole entry): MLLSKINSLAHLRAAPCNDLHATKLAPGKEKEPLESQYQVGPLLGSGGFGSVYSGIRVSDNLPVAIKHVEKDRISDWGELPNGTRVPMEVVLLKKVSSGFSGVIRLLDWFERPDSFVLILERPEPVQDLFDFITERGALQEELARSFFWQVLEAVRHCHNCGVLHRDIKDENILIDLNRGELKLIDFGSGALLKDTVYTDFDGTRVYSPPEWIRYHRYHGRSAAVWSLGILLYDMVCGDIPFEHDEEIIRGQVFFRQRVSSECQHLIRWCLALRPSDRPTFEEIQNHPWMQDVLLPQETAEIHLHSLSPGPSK
Text: as §1, §2

MAPKAPK2 (MK2) = MAPKAPK2 (MK2) (Homo sapiens, UniProt P49137); assay: Z'-LYTE kinase assay (Invitrogen SelectScreen); type: biochemical; conditions: MAPKAPK2; 5 μM
MAPKAPK2 (MK2), sequence (P49137 whole entry): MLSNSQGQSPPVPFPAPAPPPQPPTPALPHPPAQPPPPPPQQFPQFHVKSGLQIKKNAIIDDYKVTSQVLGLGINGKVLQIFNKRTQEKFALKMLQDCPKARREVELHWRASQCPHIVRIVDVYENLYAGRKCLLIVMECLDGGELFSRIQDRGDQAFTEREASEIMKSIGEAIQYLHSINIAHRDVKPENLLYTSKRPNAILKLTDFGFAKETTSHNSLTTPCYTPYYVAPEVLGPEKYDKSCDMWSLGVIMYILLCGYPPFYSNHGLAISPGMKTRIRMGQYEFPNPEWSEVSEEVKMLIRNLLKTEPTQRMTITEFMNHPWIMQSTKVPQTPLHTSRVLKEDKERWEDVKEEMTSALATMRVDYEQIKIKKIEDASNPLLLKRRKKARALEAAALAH
Text: as §1, §2

[1] = target: T1, Src kinase domain (chicken c-Src residues 251-533) (Gallus gallus, UniProt P00523); assay: Continuous spectrophotometric kinase activity assay; type: biochemical; conditions: Src kinase domain
T1 construct: chicken c-Src (residues 251-533 and residues 83-533); made in house

Abl = target: T2, Abl (Homo sapiens, UniProt P00519); assay: as above; type: biochemical
T2 construct: human c-Abl (residues 229-512); made in house
T2 sequence (P00519 229-512): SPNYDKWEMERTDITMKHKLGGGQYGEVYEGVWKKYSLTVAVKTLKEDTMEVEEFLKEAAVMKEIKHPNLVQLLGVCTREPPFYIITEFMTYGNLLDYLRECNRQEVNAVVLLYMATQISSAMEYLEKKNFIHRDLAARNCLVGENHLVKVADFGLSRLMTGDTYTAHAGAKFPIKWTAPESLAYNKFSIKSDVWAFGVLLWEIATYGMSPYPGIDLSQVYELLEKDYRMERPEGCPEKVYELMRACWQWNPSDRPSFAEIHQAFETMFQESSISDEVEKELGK

Src Thr338Ile = assay: Inhibition of Src gatekeeper mutant; type: biochemical, chicken
Text: Kinase domain constructs of human c-Abl (residues 229-512), chicken c-Src (residues 251-533 and residues 83-533), murine Lck (residues 227-509), and human Hck (residues 166-445) were expressed as previously described (Seeliger, Young et al. 2005; Seeliger, Nagar et al. 2007; the entire contents of each of which are incorporated by reference herein). Mutations were introduced into chicken c-Src (residues 251-533) (T338I, C277Q, L297M) by site-directed mutagenesis and verified by DNA sequencing.
For the FRET-based endpoint assay, kinase assays were performed using Invitrogen's Z′-LYTE kinase assay using the Tyr 02 substrate peptide (based upon the optimal Abl substrate peptide […]) according to the manufacturer's instructions. Assays were performed at near KM ATP concentrations for full-length c-Src and full-length c-Src T338I-50 μM and 7 μM, respectively.

Lck = target: T3, Lck (Mus musculus, UniProt P06240); assay: Continuous spectrophotometric kinase activity assay; type: biochemical, murine
T3 construct: murine Lck (residues 227-509); made in house
T3 sequence (P06240 227-509): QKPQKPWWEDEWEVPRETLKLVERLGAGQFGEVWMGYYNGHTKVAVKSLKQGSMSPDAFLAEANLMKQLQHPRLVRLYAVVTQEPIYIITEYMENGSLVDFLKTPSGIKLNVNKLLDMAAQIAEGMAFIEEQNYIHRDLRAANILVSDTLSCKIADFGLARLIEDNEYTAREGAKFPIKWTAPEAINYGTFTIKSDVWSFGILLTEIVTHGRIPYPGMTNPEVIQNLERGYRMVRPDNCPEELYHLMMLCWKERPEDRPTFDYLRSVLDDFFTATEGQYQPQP

LYN A = LYN A (Homo sapiens, UniProt P07948); assay: SelectScreen kinase profiling; type: biochemical; conditions: 5 μM
LYN A, sequence (P07948 whole entry): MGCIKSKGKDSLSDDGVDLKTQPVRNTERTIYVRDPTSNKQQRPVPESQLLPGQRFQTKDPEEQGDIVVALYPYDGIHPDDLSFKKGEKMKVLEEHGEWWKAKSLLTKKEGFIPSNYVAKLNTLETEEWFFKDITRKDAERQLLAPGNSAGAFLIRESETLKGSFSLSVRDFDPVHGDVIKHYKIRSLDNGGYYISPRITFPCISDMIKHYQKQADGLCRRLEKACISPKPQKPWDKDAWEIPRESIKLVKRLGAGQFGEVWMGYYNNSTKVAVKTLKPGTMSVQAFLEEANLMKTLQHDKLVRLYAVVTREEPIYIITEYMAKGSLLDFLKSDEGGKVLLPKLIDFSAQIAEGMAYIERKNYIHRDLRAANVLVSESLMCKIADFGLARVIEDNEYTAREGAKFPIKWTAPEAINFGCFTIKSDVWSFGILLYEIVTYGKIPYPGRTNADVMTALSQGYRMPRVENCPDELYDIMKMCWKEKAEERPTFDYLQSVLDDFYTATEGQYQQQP
Description: as §2

JAK3 = JAK3 (Homo sapiens, UniProt P52333); assay: SelectScreen kinase profiling; type: biochemical; conditions: 5 μM
Description: as §2

RET = RET (Homo sapiens, UniProt P07949); assay: SelectScreen kinase profiling; type: biochemical; conditions: 5 μM
RET, sequence (P07949 29-1114): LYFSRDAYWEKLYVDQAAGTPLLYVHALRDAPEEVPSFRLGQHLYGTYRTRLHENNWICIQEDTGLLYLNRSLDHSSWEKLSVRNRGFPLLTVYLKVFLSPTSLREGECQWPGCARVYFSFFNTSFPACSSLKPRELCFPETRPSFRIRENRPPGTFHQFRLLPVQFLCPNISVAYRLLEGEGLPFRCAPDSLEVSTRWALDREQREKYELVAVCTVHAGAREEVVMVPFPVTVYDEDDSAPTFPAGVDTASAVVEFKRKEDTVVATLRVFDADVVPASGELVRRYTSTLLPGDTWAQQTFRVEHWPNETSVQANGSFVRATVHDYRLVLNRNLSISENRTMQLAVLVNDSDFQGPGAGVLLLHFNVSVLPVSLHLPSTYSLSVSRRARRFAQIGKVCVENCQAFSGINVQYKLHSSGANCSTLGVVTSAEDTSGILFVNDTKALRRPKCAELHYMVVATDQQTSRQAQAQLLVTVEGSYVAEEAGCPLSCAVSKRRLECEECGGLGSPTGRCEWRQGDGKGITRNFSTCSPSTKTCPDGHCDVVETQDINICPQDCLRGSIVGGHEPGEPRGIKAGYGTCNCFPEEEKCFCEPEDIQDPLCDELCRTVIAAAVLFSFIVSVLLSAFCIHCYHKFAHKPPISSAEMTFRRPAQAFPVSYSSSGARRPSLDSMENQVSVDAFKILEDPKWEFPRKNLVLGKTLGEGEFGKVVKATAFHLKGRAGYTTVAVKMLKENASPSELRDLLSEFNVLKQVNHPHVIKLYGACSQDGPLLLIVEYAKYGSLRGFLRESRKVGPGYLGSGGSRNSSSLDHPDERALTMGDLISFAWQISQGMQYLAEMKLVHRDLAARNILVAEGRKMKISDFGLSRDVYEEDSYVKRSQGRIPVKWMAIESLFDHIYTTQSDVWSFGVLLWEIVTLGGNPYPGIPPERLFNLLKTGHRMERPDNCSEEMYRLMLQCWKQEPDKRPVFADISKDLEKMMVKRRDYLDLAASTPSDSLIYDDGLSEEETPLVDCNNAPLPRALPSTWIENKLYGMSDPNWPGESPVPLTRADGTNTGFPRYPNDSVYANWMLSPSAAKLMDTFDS
Description: as §2

MAP2K1 (MEK1) = MAP2K1 (MEK1) (Homo sapiens, UniProt Q02750); assay: SelectScreen kinase profiling; type: biochemical; conditions: 5 μM
Description: as §2

FGR = FGR (Homo sapiens, UniProt P09769); assay: SelectScreen kinase profiling; type: biochemical; conditions: FGR; 5 μM
Description: as §2

HCK = HCK (Homo sapiens, UniProt P08631); assay: SelectScreen kinase profiling; type: biochemical; conditions: HCK; 5 μM
HCK, sequence (P08631 whole entry): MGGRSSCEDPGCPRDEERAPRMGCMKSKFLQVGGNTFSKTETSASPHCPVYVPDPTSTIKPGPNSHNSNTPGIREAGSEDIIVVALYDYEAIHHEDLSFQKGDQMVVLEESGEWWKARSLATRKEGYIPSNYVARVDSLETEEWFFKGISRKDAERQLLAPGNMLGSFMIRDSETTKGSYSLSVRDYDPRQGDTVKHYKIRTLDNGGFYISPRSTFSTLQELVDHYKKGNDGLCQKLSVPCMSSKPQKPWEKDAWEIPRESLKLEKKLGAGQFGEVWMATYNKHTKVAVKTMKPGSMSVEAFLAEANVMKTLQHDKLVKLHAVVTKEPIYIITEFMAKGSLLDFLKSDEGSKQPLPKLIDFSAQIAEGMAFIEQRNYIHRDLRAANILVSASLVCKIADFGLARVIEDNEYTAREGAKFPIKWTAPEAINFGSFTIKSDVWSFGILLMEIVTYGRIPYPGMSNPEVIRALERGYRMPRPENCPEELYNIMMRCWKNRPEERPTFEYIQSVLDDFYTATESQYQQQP
Description: as §2

YES1 = YES1 (Homo sapiens, UniProt P07947); assay: SelectScreen kinase profiling; type: biochemical; conditions: 5 μM
YES1, sequence (P07947 whole entry): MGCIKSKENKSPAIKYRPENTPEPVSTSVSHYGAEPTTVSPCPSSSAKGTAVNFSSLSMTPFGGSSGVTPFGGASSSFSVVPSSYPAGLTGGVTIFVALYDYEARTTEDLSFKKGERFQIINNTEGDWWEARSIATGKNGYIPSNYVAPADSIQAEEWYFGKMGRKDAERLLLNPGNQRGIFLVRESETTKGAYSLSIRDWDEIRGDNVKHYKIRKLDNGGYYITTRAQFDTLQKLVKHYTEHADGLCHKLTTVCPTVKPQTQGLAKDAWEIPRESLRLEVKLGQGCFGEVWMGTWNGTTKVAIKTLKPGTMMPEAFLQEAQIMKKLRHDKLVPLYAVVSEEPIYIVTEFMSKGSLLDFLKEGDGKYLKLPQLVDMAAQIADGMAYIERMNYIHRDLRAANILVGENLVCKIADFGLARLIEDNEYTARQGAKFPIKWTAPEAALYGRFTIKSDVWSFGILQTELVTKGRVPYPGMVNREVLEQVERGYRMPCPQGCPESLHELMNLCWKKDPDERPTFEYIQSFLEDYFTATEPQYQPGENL
Description: as §2

FYN = FYN (Homo sapiens, UniProt P06241); assay: SelectScreen kinase profiling; type: biochemical; conditions: FYN; 5 μM
Description: as §2

[2] = 5 μM ATP, 100 μM Src optimal peptide
[3] = 250 μM ATP, 300 μM Src optimal peptide
[4] = 5 μM ATP, 300 μM Src optimal peptide

With NC(=O)[C@@H]1CCCNC(=O)[C@H](Cc2ccc([N+](=O)[O-])cc2)NC(=O)[C@H](Cc2ccco2)NC(=O)[C@H](CC2CC2)NC(=O)/C=C/C(=O)N1 [trans-A10-B1-C5-D6] the “% inhibition” value (Akt3) was 11%, the “% inhibition” value (VEGFR2 (KDR)) was 7% and the “% inhibition” value (Pim1) was −3%. For the same compound, the “% inhibition” value (MAPKAPK2 (MK2)) was −3%, the pIC50 [1, 2] was 4.96 and the pIC50 [1, 3] was 4.68. The pIC50 (Abl; [2]) was under 4.00, the pIC50 (Abl; [4]) was under 4.00 and the pIC50 (Abl; [3]) was under 4.00. The “inhibition of Src Thr338Ile gatekeeper mutant (in words)” value (Src Thr338Ile) was “retained their inhibition potency”, the pIC50 (Lck; [2]) was under 4.00 and the pIC50 (Lck; [4]) was under 4.00. The pIC50 (Lck; [3]) was under 4.00, the “% inhibition” value (LYN A) was 9% and the “% inhibition” value (JAK3) was −7%. For the same compound, the “% inhibition” value (RET) was 6%, the “% inhibition” value (MAP2K1 (MEK1)) was −6% and the “% inhibition” value (FGR) was 13%. The “% inhibition” value (HCK) was 9%, the “% inhibition” value (YES1) was 19% and the “% inhibition” value (FYN) was −1%.
